Assay results taken from the supplement of paper PMC10307832.

Experiments:
Assay in all cases: relative viability (nuclei count vs DMSO), 5 days (fraction); higher = more cells survive
XMD13-2 + Alpelisib = compound: C1CC1C(=O)NC2=NNC3=C2C=CC(=C3)C4=CC(=CC=C4)C(=O)NC5CC5 [XMD13-2] + Cc1nc(NC(=O)N2CCC[C@H]2C(N)=O)sc1-c1ccnc(C(C)(C)C(F)(F)F)c1 [Alpelisib] (partner 2 µM)
Outline: (§1)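 Lung cancer cell lines were seeded in 1536-well plates and dosed by pin tool the next day, with either a single drug or a fixed anchor-drug dose combined with five library-drug doses (not always all listed) spaced in √10 steps. Five days later, one step fixed the cells and stained their nuclei (final 0.05% Triton X-100, 1% formaldehyde, 1 ug/ml Hoechst), and nuclei were counted on 4× images. Relative viability is the nuclei count in treated wells divided by the count in vehicle wells, and each value is the median of duplicate plates.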

Dasatinib + Crizotinib = compound: Cc1nc(Nc2ncc(C(=O)Nc3c(C)cccc3Cl)s2)cc(N2CCN(CCO)CC2)n1 [Dasatinib] + C[C@@H](Oc1cc(-c2cnn(C3CCNCC3)c2)cnc1N)c1c(Cl)ccc(F)c1Cl [Crizotinib] (partner 1 µM)
Outline: as §1

Dasatinib + Navitoclax = compound: Cc1nc(Nc2ncc(C(=O)Nc3c(C)cccc3Cl)s2)cc(N2CCN(CCO)CC2)n1 [Dasatinib] + CC1(C)CCC(c2ccc(Cl)cc2)=C(CN2CCN(c3ccc(C(=O)NS(=O)(=O)c4ccc(N[C@H](CCN5CCOCC5)CSc5ccccc5)c(S(=O)(=O)C(F)(F)F)c4)cc3)CC2)C1 [Navitoclax] (partner 0.5 µM)
Outline: as §1

Dasatinib + AZD7762 = compound: Cc1nc(Nc2ncc(C(=O)Nc3c(C)cccc3Cl)s2)cc(N2CCN(CCO)CC2)n1 [Dasatinib] + NC(=O)Nc1cc(-c2cccc(F)c2)sc1C(=O)N[C@H]1CCCNC1 [AZD7762] (partner 0.2 µM)
Outline: as §1

Row | Cell Line | relative viability (XMD13-2 + Alpelisib; first compound 0.05 µM) | relative viability (XMD13-2 + Alpelisib; first compound 0.1581 µM) | relative viability (XMD13-2 + Alpelisib; first compound 0.5 µM) | relative viability (XMD13-2 + Alpelisib; first compound 1.581 µM) | relative viability (XMD13-2 + Alpelisib; first compound 5 µM) | relative viability (Dasatinib + Crizotinib; first compound 0.005 µM) | relative viability (Dasatinib + Crizotinib; first compound 0.01581 µM) | relative viability (Dasatinib + Crizotinib; first compound 0.05 µM) | relative viability (Dasatinib + Crizotinib; first compound 0.1581 µM) | relative viability (Dasatinib + Crizotinib; first compound 0.5 µM) | relative viability (Dasatinib + Navitoclax; first compound 0.005 µM) | relative viability (Dasatinib + Navitoclax; first compound 0.01581 µM) | relative viability (Dasatinib + Navitoclax; first compound 0.05 µM) | relative viability (Dasatinib + Navitoclax; first compound 0.1581 µM) | relative viability (Dasatinib + Navitoclax; first compound 0.5 µM) | relative viability (Dasatinib + AZD7762; first compound 0.005 µM) | relative viability (Dasatinib + AZD7762; first compound 0.01581 µM) | relative viability (Dasatinib + AZD7762; first compound 0.05 µM) | relative viability (Dasatinib + AZD7762; first compound 0.1581 µM) | relative viability (Dasatinib + AZD7762; first compound 0.5 µM)
1 | NCI-H2085 | 0.965 | 0.946 | 1.04 | 0.928 | 0.98 | 0.93 | 0.806 | 0.408 | 0.193 | 0.158 | 0.757 | 0.929 | 0.737 | 0.411 | 0.245 | 0.992 | 0.688 | 0.436 | 0.39 | 0.2
2 | NCI-H1651 | 1.19 | 0.899 | 0.942 | 0.913 | 1.02 | 0.874 | 0.776 | 0.841 | 0.768 | 0.704 | 0.962 | 0.806 | 0.759 | 0.76 | 0.611 | 0.475 | 0.384 | 0.382 | 0.374 | 0.333
3 | RERF-LC-KJ | 0.776 | 0.902 | 0.842 | 0.641 | 0.91 | 0.839 | 0.977 | 0.832 | 0.75 | 0.764 | 1.11 | 0.537 | 0.855 | 0.669 | 0.656 | 1.06 | 0.824 | 0.889 | 0.761 | 0.6
4 | NCI-H1755 | 0.928 | 0.915 | 0.928 | 0.92 | 0.965 | 0.696 | 0.657 | 0.365 | 0.202 | 0.174 | 0.697 | 0.591 | 0.501 | 0.273 | 0.142 | 0.424 | 0.33 | 0.296 | 0.25 | 0.215
5 | NCI-H2126 | 0.825 | 0.754 | 0.754 | 0.767 | 0.795 | 0.966 | 0.9 | 0.915 | 0.607 | 0.369 | 0.868 | 0.76 | 0.804 | 0.621 | 0.374 | 0.971 | 0.847 | 0.98 | 0.885 | 0.511
6 | EPLC-272H | 1.03 | 0.856 | 1.07 | 0.759 | 0.463 | 0.99 | 0.765 | 0.787 | 0.537 | 0.326 | 1.32 | 1.06 | 1.39 | 0.959 | 0.473 | 0.222 | 0.245 | 0.173 | 0.125 | 0.147
7 | NCI-H1975 | 0.768 | 0.642 | 0.656 | 0.607 | 0.648 | 0.858 | 0.852 | 0.612 | 0.404 | 0.272 | 0.895 | 1.02 | 1.03 | 0.412 | 0.308 | 0.714 | 0.538 | 0.578 | 0.442 | 0.317
8 | NCI-H3122 | 0.784 | 0.678 | 0.782 | 0.945 | 0.819 | 0.261 | 0.332 | 0.347 | 0.253 | 0.223 | 1.03 | 1.01 | 1.04 | 0.977 | 0.792 | 0.991 | 0.982 | 0.951 | 0.876 | 0.643
9 | BEN | 1.29 | 1.03 | 1 | 1.03 | 1.11 | 0.706 | 0.397 | 0.493 | 0.378 | 0.332 | 0.0479 | 0.0657 | 0.0572 | 0.0599 | 0.0611 | 0.747 | 0.558 | 0.483 | 0.402 | 0.43
10 | NCI-H1915 | 1.1 | 1.08 | 1.04 | 1.05 | 1.06 | 0.828 | 0.764 | 0.638 | 0.284 | 0.24 | 0.803 | 0.728 | 0.75 | 0.44 | 0.261 | 0.693 | 0.616 | 0.509 | 0.21 | 0.212
11 | NCI-H1703 | 0.356 | 0.405 | 0.292 | 0.279 | 0.406 | 0.652 | 0.18 | 0.203 | 0.154 | 0.108 | 0.567 | 0.38 | 0.238 | 0.17 | 0.146 | 0.128 | 0.121 | 0.139 | 0.116 | 0.13
12 | NCI-H460 | 0.653 | 0.586 | 0.498 | 0.468 | 0.492 | 0.729 | 0.602 | 0.432 | 0.243 | 0.218 | 0.828 | 0.912 | 0.815 | 0.563 | 0.217 | 0.523 | 0.546 | 0.542 | 0.472 | 0.328
13 | HCC-827 | 1.01 | 0.917 | 1.01 | 0.947 | 0.528 | 0.924 | 0.82 | 0.807 | 0.385 | 0.145 | 1.01 | 1.01 | 1.01 | 0.719 | 0.188 | 0.215 | 0.176 | 0.127 | 0.114 | 0.146
14 | NCI-H322M | 0.833 | 0.716 | 0.71 | 0.793 | 0.872 | 0.953 | 0.785 | 0.753 | 0.336 | 0.155 | 1.28 | 1.27 | 1.31 | 0.524 | 0.237 | 0.597 | 0.526 | 0.468 | 0.265 | 0.381
15 | NCI-H1666 | 1.02 | 1.07 | 0.936 | 0.874 | 0.879 | 1.01 | 0.878 | 0.783 | 0.561 | 0.247 | 0.948 | 0.895 | 0.917 | 0.617 | 0.324 | 0.852 | 0.685 | 0.762 | 0.622 | 0.411
16 | NCI-H1437 | 0.935 | 1.06 | 0.955 | 0.796 | 1.05 | 0.868 | 0.894 | 1.1 | 0.79 | 0.251 | 1.09 | 1.05 | 1.09 | 0.999 | 0.432 | 1.22 | 1.05 | 1.04 | 0.893 | 0.221
